Data set [1] relates to intraperitoneal eosinophilia. The data set can be described thus: Action on intraperitoneal eosinophilia model mice (sensitized with swine roundworm extract). The data set is classed as in vivo, BALB/c male mice. The note with it: oral, once a day, 10 times, BALB/c mice. As to the method:
Using five animals per group of BALB/c male mice (about 25 g in body weight), 0.11 mL of physiological saline containing 0.1 mg of swine roundworm extract was administered into the peritoneal cavity of each mouse to sensitize. The same treatment was repeated 7 days after the administration and, 3 days thereafter, each animal was sacrificed by phlebotomy, 3 mL of physiological saline containing 1% dipotassium ethylenediaminetetraacetate (EDTA) was administered by intraperitoneal injection and its abdominal region was massaged for about 30 seconds. The abdominal region was incised to collect intraperitoneal fluid which was subsequently centrifuged at 130 x g for 10 minutes, and the resulting precipitate was mixed with 500 µl of fetal calf serum containing 1% EDTA to prepare a cell suspension. A portion of the cell suspension was daubed on a slide glass using a spinner to carry out Diff-Quik staining, and then total leukocytes and eosinophils were counted to calculate the ratio of eosinophils in the total leukocytes. The number of total leukocytes in the cell suspension was measured using an automatic blood cell counter. The number of eosinophils in the cell suspension was calculated by multiplying the ratio of eosinophils in the total leukocytes by the number of total leukocytes.
Each of the compounds to be tested was suspended in 5% acacia aqueous solution and orally administered once a day for a total of 10 times starting immediately after the initial sensitization (test compound-administered group). Also, 5% acacia aqueous solution was orally administered to a group of mice in which sensitization and administration of test compounds were not carried out (non-treated group) and another group of mice in which sensitization was carried out but test compounds were not administered (control group).
The dose of each compound to be tested and the intraperitoneal eosinophilia inhibition rate calculated by the following formula are shown in Table 1. Eosinophilia inhibition rate (%) = {1 - (test compound- administered group - non-treated group)/(control group - non- treated group)} x 100 [formula]

The subject of the next data set is BALB/c male mice. Particulars: mouse, in vivo, po, 100 mg/kg/day. An excerpt:
Toxicity of compounds of the present invention was examined.

This is an account of results in patent publication EP0936218B1, “BENZIMIDAZOLE DERIVATIVES” (MOCHIDA PHARMACEUTICAL CO., LTD., priority 1996, dated 1998).

For `O=C(O)CC(=O)c1cccc2nc(CCc3ccccc3)[nH]c12` [Example 1, 3-(2-(2-phenylethyl)benzimidazol-4-yl)-3-oxopropanoic acid], the “Intraperitoneal eosinophilia inhibition rate (%)” value amounted to 67% in data set [1] (dose 3 mg/kg/day) and 78% in data set [1] (dose 30 mg/kg/day). For the same molecule, the mortal case entry with BALB/c male mice is given as “no mortal case was found”.

In the case of `COC(=O)CC(=O)c1cccc2nc(CCc3ccccc3)[nH]c12` [Example 2, methyl 3-(2-(2-phenylethyl)benzimidazol-4-yl)-3-oxopropanoate], the “Intraperitoneal eosinophilia inhibition rate (%)” value in data set [1] (dose 100 mg/kg/day) was 42%. In addition, the mortal case result with BALB/c male mice is recorded as “no mortal case was found”.

Consider `CCOC(=O)CC(=O)c1cccc2nc(CCc3ccccc3)[nH]c12` [Example 3, ethyl 3-(2-(2-phenylethyl)benzimidazol-4-yl)-3-oxopropanoate], for which the “Intraperitoneal eosinophilia inhibition rate (%)” value was found to be 67% in data set [1] (dose 10 mg/kg/day) and 75% in data set [1] (dose 30 mg/kg/day). Regarding `COC(=O)CC(O)c1cccc2nc(CCc3ccccc3)[nH]c12` (stereo not drawn) [Example 5, methyl 3-(2-(2-phenylethyl)benzimidazol-4-yl)-3-hydroxypropanoate], in data set [1] (dose 100 mg/kg/day), the “Intraperitoneal eosinophilia inhibition rate (%)” value is reported as 62%. In the data set on BALB/c male mice, the mortal case entry is given as “no mortal case was found”. Consider `CCOC(=O)CC(O)c1cccc2nc(CCc3ccccc3)[nH]c12` (stereo not drawn) [Example 6, ethyl 3-(2-(2-phenylethyl)benzimidazol-4-yl)-3-hydroxypropanoate], for which the results for the “Intraperitoneal eosinophilia inhibition rate (%)” value in data set [1] (dose 3 mg/kg/day) and in data set [1] (dose 10 mg/kg/day) were 35% and 59%, respectively.

With `O=C(O)CC(O)c1cccc2nc(CCc3ccccc3)[nH]c12` (stereo not drawn) [Example 7, 3-(2-(2-phenylethyl)benzimidazol-4-yl)-3-hydroxypropanoic acid], the “Intraperitoneal eosinophilia inhibition rate (%)” value in data set [1] (dose 0.3 mg/kg/day) is given as 55%. Also, the mortal case result in the data set on BALB/c male mice is on record as “no mortal case was found”. For `CCOC(=O)CC(=O)c1cccc2c1nc(CCc1ccccc1)n2C` [Example 10, ethyl 3-(1-methyl-2-(2-phenylethyl)benzimidazol-4-yl)-3-oxopropanoate], the mortal case entry in the data set on BALB/c male mice is given as “no mortal case was found”.

Turning to `CC(=O)OCC(=O)[C@@]1(O)CC[C@H]2[C@@H]3CCC4=CC(=O)C=C[C@]4(C)[C@H]3[C@@H](O)C[C@@]21C` [Prednisolone acetate, 11β,17α,21-trihydroxypregna-1,4-diene-3,20-dione 21-acetate, reference compound], in data set [1] (dose 10 mg/kg/day), the “Intraperitoneal eosinophilia inhibition rate (%)” value is recorded as 61 - 85%.
